# Laboratory results from patent US12133842B2, “Stable preservative-free mydriatic and anti-inflammatory solutions for injection” (RAYNE INTRAOCULAR LENSES LIMITED, priority 2012, dated 2024).
# Entries after “also recorded” stand apart in the source; their conditions may differ. Where a name gives a salt, the structure may show the parent alone.
# Assays:
# [1] = tested on: African green monkeys undergoing phacoemulsification surgery with lens replacement; test: GLP toxicology (safety) study of PE-KE irrigation in phacoemulsification surgery, Example 9; assay type: in vivo, African green monkey; details: tropicamide control group; thirty seconds after intracameral 150 μl BSS alone
# Procedure: (§1) In each case an aliquot of the formulation was injected into a balanced salt solution (BSS, Baxter Healthcare, produce code 1A7233) as the irrigation vehicle carrier to a particular final dosing concentration as described below. The studies also utilized Proparacaine HCl (0.5%, Bausch & Lomb), Tropicamide (1.0%, Bausch & Lomb) and Ciprofloxacin HCl (3%, Alcon) to the extent described below.
# (§2) The mydriatic and anti-inflammatory properties of the test agents were evaluated in an African green monkey model of human phacoemulsification surgery. Prior to surgery, baseline measures and assessments were performed on both eyes in each monkey to determine pupil diameter, lens and iris integrity, corneal thickness, and anterior chamber flare and cell count by qualitative scoring under biomicroscopy and quantitative flare photometry using a Kowa FM-500 instrument. […]
# A nonclinical GLP toxicology study was carried out in African green monkeys. […] Three concentrations were evaluated: 720 μM PE and 90 μM KE (720:90 μM) in the low concentration group, 2160 μM PE and 270 μM KE (2160:270 μM) in the mid concentration group, and 7200 μM PE and 900 μM KE (7200:900 μM) in the high concentration group.
# A separate control group was evaluated as well. […]
# [2] = tested on: African green monkey model of human phacoemulsification surgery; test: Concentration-ranging study of phenylephrine and ketorolac, intraoperative irrigation, phacoemulsification surgical model, Example 6; assay type: in vivo
# Procedure: as §1
# The mydriatic and anti-inflammatory properties of the test agents were evaluated in an African green monkey model of human phacoemulsification surgery. Prior to surgery, baseline measures and assessments were performed on both eyes in each monkey to determine pupil diameter, lens and iris integrity, corneal thickness, and anterior chamber flare and cell count by qualitative scoring under biomicroscopy and quantitative flare photometry using a Kowa FM-500 instrument. A phacoemulsification surgery with lens replacement with a polymethyl methacrylate (PMMA) artificial lens was performed using a Storz Premier anterior phacoemulsification machine. The procedure was only performed on the right eye to minimize surgery position variability, allow the left to serve as control, and to minimize the consequence of any possible vision loss induced.
# Test animals were placed in a prone position under ketamine/xylazine anesthesia augmented with one drop of topical proparacaine. A small incision was made in the cornea of the right eye with a MVR 20 G lance blade, through which 0.4-0.6 mL of viscoelastic (2% hydroxypropyl methylcellulose, EyeCoat, Eyekon Medical) was introduced into the anterior chamber via a viscoelastic injector. A corneal incision was made 1.0 mm anterior to the limbus using a 2.65 mm straight clear cornea bi-beveled blade. Irrigation was applied with the phacoemulsification hand piece to remove viscoelastic and introduce the test perfusate. After irrigation for a total of four minutes, irrigation was stopped and the anterior chamber refilled with viscoelastic. A capsulorhexis was performed and the phacoemulsification tip reintroduced into the anterior chamber with the application of phacoemulsification energy to disrupt the lens and allow aspiration and lens fragment removal. Irrigation was extended for a period after lens removal to standardize intraocular perfusate delivery across all treatment groups (a total of 14 minutes during this phacoemulsification segment of the irrigation). Following the phacoemulsification and irrigation procedure, a PMMA intraocular lens (IOL) was inserted and an additional two minutes of irrigation perfumed, after which the corneal incision was closed with two 12.0 nylon sutures. Irrigation with a test fluid or vehicle control, as described below, was performed for a total of 20 minutes at a flow rate of 20 mL/min, prior to, during and after phacoemulsification and lens replacement.
# (§3) In these studies, laser flare photometry was performed at baseline, 4.5, 24, 48 hours and 1 week after the initiation of the surgical procedure using a Kowa FM-500 (Kowa Company, Tokyo Japan). The Kowa FM-500 measures laser light scattering to quantify anterior chamber flare. A laser is directed into the anterior chamber and protein molecules, released into the anterior chamber during an inflammatory response, pass through the focal point scattering laser light. This light scattering is quantified by a photomultiplier tube as photon counts per millisecond. At each observation point, measurements were collected until seven acceptable readings (difference between two background measurements <15%) were obtained and the lowest and highest readings were deleted and the mean value+/−the standard deviation calculated, as specified by the manufacturer.
# The time course of the mydriatic effect was documented through video recording of the pupil during the perfusion procedure. Pupil diameter and the fixed width of the lid speculum (11 mm) were measured from the screen image to allow calculation of the pupil diameter in millimeters.
# [3] = tested on: African green monkey model of human phacoemulsification surgery; test: Phenylephrine and ketorolac combination (90 μM PE, 30 μM KE) irrigation in phacoemulsification surgical model, Example 7; assay type: in vivo
# Procedure: as §1
# as §2, with “instrument. A phacoemulsification surgery with lens replacement with a polymethyl methacrylate (PMMA) artificial lens was performed using a Storz Premier anterior phacoemulsification machine.” for “instrument.”
# as §3, with “A laser is directed into the anterior chamber and protein molecules, released into the anterior chamber during an inflammatory response, pass through the focal point scattering laser light.” left out
# The time course of the mydriatic effect was documented through video recording of the pupil during the perfusion procedure. Pupil diameter and the fixed width of the lid speculum (11 mm) were measured from the screen image to allow calculation of the pupil diameter in millimeters. […]
# [4] = tested on: subjects undergoing unilateral cataract extraction with lens replacement (CELR); test: Phase 2b human clinical study, irrigation during cataract extraction with lens replacement (CELR), Example 10; assay type: in vivo; details: for Subjects Having Pupil Diameter <6 mm during CELR (number of subjects) / Subjects Having Pupil Diameter <6 mm during CELR (percent): intent-to-treat, n = 49 combination, 52 KE, 49 PE
# Procedure: A Phase 2b human clinical study evaluated a ketorolac and phenylephrine combination drug composition, formulated in accordance with Formula 1 of the present invention-, for its effect on the maintenance of intra-operative mydriasis (pupil dilation) and reduction of postoperative pain and irritation resulting from cataract and other lens replacement surgery. The combination drug composition was diluted into a balanced salt solution irrigation carrier prior to intraocular administration during intraocular surgical procedures.
# The subject Phase 2b study was a randomized, parallel group, vehicle-controlled, factorial design study, and was run to compare phenylephrine (PE), ketorolac (KE) and the combination drug composition containing both PE and KE in subjects undergoing unilateral cataract extraction with lens replacement (CELR) using a coaxial phacoemulsification process with insertion of an acrylic lens. Administration of test irrigation solutions occurred in a double-masked fashion. The study evaluated, in a four-arm full-factorial design, the contribution of the two active pharmaceutical ingredients (PE and KE, alone and in combination) to the maintenance of mydriasis and post-operative reduction in pain when administered diluted in balanced salt solution (BSS). The study also explored the effect of the combination drug composition, PE, and KE on postoperative inflammation. Subjects were randomized to one of the following four treatment arms in a 1:1:1:1 fashion: • a. BSS vehicle • b. 483 μM PE in BSS • c. 89 μM KE in BSS • d. the combination drug composition containing 483 μM PE and 89 μM KE in BSS.
# All subjects in this study received preoperative mydriatics and anesthetics. In each of the four groups, the respective irrigation treatment was administered as a single irrigation of the anterior chamber of the eye during the CELR surgical procedure, with a mean of 8 minutes of exposure in this study. In addition, at the end of the procedure, the anterior chamber was filled with the irrigation treatment. The change in pupil diameter over time from surgical baseline (immediately prior to surgical incision) to the end of the surgical procedure (wound closure) was measured, as was postoperative pain on the day of operation as measured by the Visual Analog Scale (VAS) at 2, 4 6, 8 and 10-12 hours and at other times recorded by the patient prior to taking rescue pain medication.
# [5] = cited from earlier work
compound,measurement,setting,value
tropicamide,pupil diameter,[1],5.18±0.18 mm
same,maximal pupil dilation relative to phenylephrine groups,[2]; two drops 1% topical 20 minutes before BSS irrigation,"lower maximal dilation than exhibited by the mid, high and highest concentration phenylephrine groups"
same,mean pupil diameter,"[3]; control arm of previous efficacy studies, preoperative topical 1% tropicamide",5.9 mm
same,time at which pupil diameter plateaued,"[3]; monkey, in vivo",approximately 2.5 minutes
same,maximal dilation relative to PE-KE group,[3]; topical tropicamide 20 minutes before BSS irrigation,lower maximal dilation than exhibited by the PE-KE treatment group
"O=C(c1ccccc1)c1ccc2n1CCC2C(=O)O (racemic) [ketorolac, (+/−)-5-Benzoyl-2,3-dihydro-1H-pyrrolizine-1-carboxylic acid:2-amino-2(hydroxymethyl)-1,3-propanediol (1:1)]",anti-miotic effect,[4]; 89 μM KE with 483 μM PE,provided an anti-miotic effect on top of the effect of phenylephrine
same,subjects with extreme constriction (pupil reduction of 2.5 mm or more),[4]; 483 μM PE and/or 89 μM KE in BSS,21%
same,Subjects Having Pupil Diameter <6 mm during CELR (number of subjects),[4],18
same,Subjects Having Pupil Diameter <6 mm during CELR (percent),[4],35%
same,flare measurements versus control at 24 and 48 hours,"[2]; high and mid dose ketorolac, not statistically significant",remained lower relative to the control group
same,mydriasis relative to BSS alone,"[2]; ketorolac 3-30 μM in BSS, initial two minutes before phenylephrine",No statistical differences; also recorded: did not result in a change in mydriasis substantially different from that observed with BSS alone
same,flare measures / anterior chamber inflammation versus BSS control at 4.5 hours,"[2]; mid (10 μM) and high (30 μM) ketorolac groups combined, F=5.17, P<0.0223",statistically significant difference; also recorded: positive effect of ketorolac on anterior chamber inflammation
same,solubility of three crystal forms,[5]; water,equally soluble in water
"CNC[C@H](O)c1cccc(O)c1 [phenylephrine, (−)-m-Hydroxy-a-[(methylamino)methyl]benzyl alcohol hydrochloride]",Subjects Having Pupil Diameter <6 mm during CELR (number of subjects),[4],11
same,Subjects Having Pupil Diameter <6 mm during CELR (percent),[4],22%
same,pupil dilation after adding phenylephrine to ketorolac or BSS perfusate,[2]; 30 μM phenylephrine added at two minutes,rapid dilation occurred
same,"maximal mydriasis attained, dependence on concentration","[2]; 3, 10, 30, 90 μM",concentration-dependent
same,flare measures relative to tropicamide control,"[2]; all time points, Student Newman-Keuls, hydrochloride",no treatment effect on flare measures; also recorded: no significant difference between treatment groups
same,mean dilation (pupil diameter) at later time points,"[2]; high phenylephrine group (30 μM), approaches anatomic limit",~8.3 mm
same,concentration resulting in mydriasis exceeding preoperative topical 1% tropicamide,[2]; in BSS perfusate,≥ 10 µM
same,mydriasis onset and maintenance (video pupil data),[2]; phenylephrine 3-90 μM in BSS anterior chamber perfusate,rapid onset mydriasis which was maintained throughout the surgical procedure
same,"flare photometry and pachymetry measures (anterior chamber inflammation, corneal edema)",[2]; phenylephrine added to perfusate,did not indicate a reduction in anterior chamber inflammation or corneal edema
same,solubility,[5]; water and alcohol,freely soluble in water and alcohol
